Structures can show the parent of a compound that is named as a salt. One block for each molecule: values may come before it.
Key:
[1] = target: equine cytochrome C (Equus caballus, UniProt P00004); assay: Catalytic digestion: trypsin digestion of immobilized cytochrome C with degrading catalyst; format: biochemical; settings: 15 units of trypsin per well, FIG. 2
Procedure: Chem. Soc., 2004, 126:12833-12842 and tested as a degrading catalyst. On the Epic™ System, equine cytochrome C was chemically immobilized onto the EMA surface. The comparative trypsin digestion on the Epic™ system was measured. […] In these assays, 15 units of trypsin were used in each well. No titration was done for the enzyme, the cytochrome protein or the copper II porphyrin.

[2] = target: T1, H.S.A. (Homo sapiens, UniProt P02768); assay: Percent crosslinking of H.S.A. with glutaraldehyde in presence of denaturants; format: biochemical; settings: as the concentration of denaturing agent increased; FIGS. 7-10
T1 sequence (P02768 25-609): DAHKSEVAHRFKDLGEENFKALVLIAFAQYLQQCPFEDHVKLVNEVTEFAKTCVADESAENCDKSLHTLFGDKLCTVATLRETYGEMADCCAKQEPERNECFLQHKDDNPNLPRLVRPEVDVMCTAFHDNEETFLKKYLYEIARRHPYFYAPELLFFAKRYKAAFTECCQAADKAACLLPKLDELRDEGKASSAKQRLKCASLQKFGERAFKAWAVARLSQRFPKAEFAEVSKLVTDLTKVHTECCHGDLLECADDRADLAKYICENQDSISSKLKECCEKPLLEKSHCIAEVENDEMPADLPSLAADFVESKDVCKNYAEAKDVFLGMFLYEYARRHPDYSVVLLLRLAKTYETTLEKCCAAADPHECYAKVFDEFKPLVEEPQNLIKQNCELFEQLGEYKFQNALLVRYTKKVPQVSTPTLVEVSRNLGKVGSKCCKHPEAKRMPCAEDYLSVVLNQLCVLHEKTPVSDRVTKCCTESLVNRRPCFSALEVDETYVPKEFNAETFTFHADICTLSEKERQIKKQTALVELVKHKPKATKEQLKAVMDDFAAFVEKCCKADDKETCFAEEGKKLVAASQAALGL
Procedure: The fractional amount of chemical crosslinking was measured by taking the ratio of added crosslinker attached to the protein relative to amount of initial protein on the sensor. Initially, protein is immobilized and washed on the Epic™ sensor and then measured for amount of immobilized protein. The protein is exposed to glutaraldehyde with a specified solution condition. The mass change that resulted from crosslinking is recorded again on the Epic™ system. The ratio of picometer change by crosslinker (due to mass increase) to mass of protein immobilized (as measured by initial change in picometer due to protein immobilization) is referred to as the fractional amount of crosslinking (% XL or % crosslinking), which is depicted in FIG. 6. This mass change by chemical crosslinking provides a “snap shot” of the conformational state accessible to cross linker.
As a protein or bioentity is denatured it should unfold and thereby increase the number of available sites for crosslinking.

[3] = system: trypsin; assay: Comparative trypsin digestion of myoglobin, apomyoglobin and heme-inserted apomyoglobin on Epic system; format: biochemical; settings: approximately 23 minutes; for trypsin digestion (refractive index change): 15 units of trypsin in 1× PBS, FIGS. 18 and 19
Procedure: The heme inserted wells as well as the apoprotein and myoglobin wells were digested using 15 units of trypsin in 1× PBS. The digestion process was allowed to proceed for approximately 23 minutes with continuous monitoring of refractive index changes on the LID system. The hierarchy of digestion followed the following order; myoglobin (−250 pm)<apomyoglobin with heme (−350 pm)<apomyoglobin (−500 pm) (FIGS. 18 and 19). […] The difference between the native myoglobin and the heme inserted apomyoglobin may be a result of slight denaturation effects that were introduced in the preparation of the apomyoglobin protein.

[4] = target: T1, H.S.A.; assay: Tryptic digestion of H.S.A. after chemical modification; format: biochemical; settings: 5 minute treatment of 2,3-butanedione; FIG. 20
From the text: In this type of assay, the digestion signal can be used as a means for screening large compound libraries for modulators of digestion (i.e. inhibitors or enhancers). The digestion inhibitors could be directed against-any lytic agent including but not limited to peptidases (as in the Caspase assay), proteases, nucleases, glucuronidase, glucosidase, lipases and the like. The assay is capable of detecting small molecule inhibitors of digestion of any molecular weight size. […] The extent to which an inhibitor can prevent digestion is assayed. […] The bar in FIG. 20, labeled 2,3-butanedione represents the net tryptic digestion of H.S.A. after a 5 minute treatment of 2,3-butanedione. The chemical 2,3-butanedione is an effective chemical modifier of amino acids such as lysine or arginine and is known in the art as an effective inhibitor of trypsin digestion via target modification.

[5] = target: T1, H.S.A.; assay: Conformational mode locking: trypsin digestion of H.S.A. after glutaraldehyde crosslinking; format: biochemical; settings: 10% glutaraldehyde in 0.1 M phosphate pH 7
From the text: The use of covalent chemical crosslinking as a way of assaying conformational states or transitions of bioentities was investigated. H.S.A. was immobilized on an Epic™ sensor. The protein was crosslinked with glutaraldehyde under a variety of conditions (FIG. 5). Glutaraldehyde is a small molecular weight organic chemical (100 Dalton). It can undergo a variety of chemical crosslinking events with either itself or several amino acids. For this study, 10% glutaraldehyde in 0.1 M phosphate pH 7 was used. This was done to avoid the possibility of polymeric glut from forming. The amount of protein immobilized on the surface was also measured as well as the amount of chemical crosslinking and trypsin digestion. […] This effect was expected since crosslinking should affix the protein to the surface and render mass loss incapable. This finding should permit the ability to immobilize affinity capture molecules like antibodies and streptavidin and after crosslinking prevent their digestion. These crosslinked capture structures can then be used to specifically orient their antigens for antigen specific digestion.

[6] = target: T2, Calmodulin (CAM) (Homo sapiens, UniProt P0DP23); assay: Surrogate binding: calcium additions to immobilized calmodulin on Epic biosensor; settings: nine additions of 200 μM calcium chloride
T2 construct: purchased Upstate cell signaling solutions 14-368
From the text: In this assay, the detection of macromolecular events whose mass changes are below detection due to sparingly low refractive index changes on a biosensor are consequentially assayed through surrogate associations that are then detectable by refractive index changes (i.e., any event (ion or not) which conveys a signature through association and is assayable on a biosensor).
Calmodulin (CAM) is a classic calcium binding protein. It binds four calcium ions per protein. At saturation, four ligands at a mass of 40 Daltons equals 160 Dalton is produced. This mass is expected to be below normal direct bind detection. However, upon calcium binding CAM undergoes a dramatic conformational transition. The physical changes by CAM play a crucial role in the functioning of this molecule in vivo. Fluorescent probes that sense hydrophobic transitions have been used for more than a decade. […] Calmodulin was chosen as the model system for the concept of surrogate direct binding because the binding of calcium to this protein should not be readily detectable on a biosensor (4×40 Dalton for calcium=160 Da).
CAM was ordered through Upstate cell signaling solutions (Cat #14-368). […] Yet, when a hydrophobic probe is employed (a surrogate direct bind probe), a calcium modulation interaction is detected.

[7] = system: trypsin or chymotrypsin; assay: Conformational assay: label-independent digestion of immobilized albumins; format: biochemical; settings: relative to normal BSA; FIGS. 3 and 4
Procedure: In this assay, it was determined whether or not a label-independent detection assay can distinguish between different albumins by digestion with either trypsin or chymotrypsin on the Epic™ system.

[8] = system: rabbit IgG; assay: Trypsin digestion of rabbit IgG plus warfarin (specificity control); format: biochemical; settings: generic protein control
From the text: (§1) The data indicates several properties.

[9] = system: trypsin; assay: Trypsin digestion of standard fluorescent substrate BZIP plus warfarin (specificity control); format: biochemical
From the text: It is contemplated that any conformationally altered ligand-bioentity complex can be further confirmed or characterized through secondary analysis such as peptide digest mapping, deuterium exchange studies, Michaelis-Menten kinetic studies, circular dichroism, intrinsic fluorescence analysis, competition studies with fluorescence polarization assays and the like. In addition, the effects that a ligand or putative ligand may have on the digesting agent may be analyzed using a known non-binding agent or through kinetic analysis using fluorescent assays or absorbance assays. For example, rhodamine 110, bis-(CBZ-L-isoleucyl-L-prolyl-L-arginine amide), dihydrochloride (BZiPAR, Invitrogen Inc.) may be used in fluorescence assays with trypsin and a putative ligand. Similarly, Nα-benzoyl-L-arginine ethyl ester hydrochloride (BAEE) may also be used for spectrophotometric assays with trypsin and other proteases.
as §1

Sequence of equine cytochrome C (P00004 whole entry): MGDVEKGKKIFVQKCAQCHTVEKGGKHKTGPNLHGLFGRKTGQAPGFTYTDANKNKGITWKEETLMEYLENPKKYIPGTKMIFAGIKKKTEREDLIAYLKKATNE

Molecule: O=C(O)c1ccc(-c2c3nc(c(-c4ccc(C(=O)O)cc4)c4ccc([nH]4)c(-c4ccc(C(=O)O)cc4)c4nc(c(-c5ccc(C(=O)O)cc5)c5ccc2[nH]5)C=C4)C=C3)cc1.[Cu+2] [copper (II) tetra-(4-carboxyphenyl)porphyrin]
- trypsin digestion of cytochrome C with degrading catalyst [1]: significant enhancement of digestion

- percent crosslinking of H.S.A. with glutaraldehyde [2]: increasing percent crosslinking
Molecule: NC(N)=O [Urea]

Molecule: [Cl-].[Na+] [NaCl]
- percent crosslinking of H.S.A. with glutaraldehyde [2]: increasing percent crosslinking

Molecule: heme
- reduction in digestion of apomyoglobin caused by heme insertion ([3]; 15 units of trypsin): 140 picometer

Molecule: CC(=O)C(C)=O [2,3-butanedione]
- net tryptic digestion of H.S.A. after chemical modification [4]: digestion is effected by chemical modification

- proteolytic (trypsin) digestion of H.S.A. after chemical crosslinking [5]: dramatically inhibited/attenuated
Molecule: O=CCCCC=O [glutaraldehyde]

Molecule: [Ca+2].[Cl-].[Cl-] [calcium chloride]
- binding detection of calcium to CAM with surrogate probe ([6]; 100 μM ANS hydrophobic probe present): binding event
- direct bind detection of calcium to CAM ([6]; CAM in 1×PBS without probe, relative to blocked wells): no binding data

- percent crosslinking of H.S.A. with glutaraldehyde [2]: increasing percent crosslinking
Molecule: [Cl-].[Cl-].[Mg+2] [MgCl]

Molecule: acetylated BSA: acetylated bovine serum albumin immobilized on the biosensor
- digestion profile of immobilized albumin [7]: dramatic enhanced digestion profile

Molecule: CC(=O)CC(c1ccccc1)c1c(O)c2ccccc2oc1=O (centres unmarked) [warfarin]
- reduction in trypsin digestion rate, rabbit IgG plus warfarin [8]: no such reduction in digestion rate was observed
- reduction in trypsin digestion rate, BZIP plus warfarin [9]: no such reduction in digestion rate was observed

- percent crosslinking of H.S.A. with glutaraldehyde [2]: increasing percent crosslinking
Molecule: N=C(N)N [guanidine HCL]

Molecule: methylated BSA: methylated bovine serum albumin immobilized on the biosensor
- digestion profile of immobilized albumin [7]: dramatic reduction in digestion rates

B1: myoglobin: native horse myoglobin (protein, UniProt P68082 2-154, looked up)
Myoglobin: GLSDGEWQQVLNVWGKVEADIAGHGQEVLIRLFTGHPETLEKFDKFKHLKTEAEMKASEDLKKHGTVVLTALGGILKKKGHHEAELKPLAQSHATKHKIPIKYLEFISDAIIHVLHSKHPGDFGADAQGAMTKALELFRNDIAAKYKELGFQG
- trypsin digestion (refractive index change) [3]: −250 pm

B2: apomyoglobin with heme: apomyoglobin after heme insertion with 2 μM hemin (protein, UniProt P68082 2-154, looked up)
Myoglobin: GLSDGEWQQVLNVWGKVEADIAGHGQEVLIRLFTGHPETLEKFDKFKHLKTEAEMKASEDLKKHGTVVLTALGGILKKKGHHEAELKPLAQSHATKHKIPIKYLEFISDAIIHVLHSKHPGDFGADAQGAMTKALELFRNDIAAKYKELGFQG
modifications: heme reconstituted
notes: apomyoglobin after heme insertion with 2 μM hemin
- trypsin digestion (refractive index change) [3]: −350 pm

B3: apomyoglobin: horse apomyoglobin made by acid-acetone heme removal (protein, UniProt P68082 2-154, looked up)
Myoglobin: GLSDGEWQQVLNVWGKVEADIAGHGQEVLIRLFTGHPETLEKFDKFKHLKTEAEMKASEDLKKHGTVVLTALGGILKKKGHHEAELKPLAQSHATKHKIPIKYLEFISDAIIHVLHSKHPGDFGADAQGAMTKALELFRNDIAAKYKELGFQG
modifications: heme removed
notes: horse apomyoglobin made by acid-acetone heme removal
- trypsin digestion (refractive index change) [3]: −500 pm

— patent US8158340B2, “Methods for detecting conformational changes in bioentities” (Corning Incorporated, priority 2005, dated 2012)
